Assay results published in patent US9980928B2, “Hydroxy aliphatic substituted phenyl aminoalkyl ether derivatives” (PROUS INSTITUTE FOR BIOMEDICAL RESEARCH, S.A., priority 2012, dated 2018).

Assays:
mice [1] = experiment: Tail suspension assay in mice; assay type: in vivo
Method: Another method of measuring antidepressant activity that may be used to evaluate the compounds of the present invention is the tail suspension test in mice described in Vogel, H. G. and Vogel, W. H. (Eds.) Drug Discovery and Evaluation, Springer-Verlag Berlin Heidelberg, 1997) pp. 304-3059). The mouse tail suspension assay was conducted 60 minutes after dosing. The duration of immobility was recorded for a period of 5 minutes after tail suspension was initiated, and reduction in the duration of immobility by ≥50% relative to the control group indicated antidepressant activity. Statistical analysis was also performed by using one-way ANOVA followed by Dunnett's test to compare the data of test compound-treated and vehicle control groups. Significance was considered to be P<0.05.

[2] = biological target: T1, norepinephrine (NE) transporter (Homo sapiens, UniProt P23975); experiment: Norepinephrine transporter binding radioligand inhibition ([3H]-nisoxetine); conditions: concentration 10 μM
T1 construct: expressed in transfected cells; host or cells: CHO cells
T1 sequence (P23975 whole entry): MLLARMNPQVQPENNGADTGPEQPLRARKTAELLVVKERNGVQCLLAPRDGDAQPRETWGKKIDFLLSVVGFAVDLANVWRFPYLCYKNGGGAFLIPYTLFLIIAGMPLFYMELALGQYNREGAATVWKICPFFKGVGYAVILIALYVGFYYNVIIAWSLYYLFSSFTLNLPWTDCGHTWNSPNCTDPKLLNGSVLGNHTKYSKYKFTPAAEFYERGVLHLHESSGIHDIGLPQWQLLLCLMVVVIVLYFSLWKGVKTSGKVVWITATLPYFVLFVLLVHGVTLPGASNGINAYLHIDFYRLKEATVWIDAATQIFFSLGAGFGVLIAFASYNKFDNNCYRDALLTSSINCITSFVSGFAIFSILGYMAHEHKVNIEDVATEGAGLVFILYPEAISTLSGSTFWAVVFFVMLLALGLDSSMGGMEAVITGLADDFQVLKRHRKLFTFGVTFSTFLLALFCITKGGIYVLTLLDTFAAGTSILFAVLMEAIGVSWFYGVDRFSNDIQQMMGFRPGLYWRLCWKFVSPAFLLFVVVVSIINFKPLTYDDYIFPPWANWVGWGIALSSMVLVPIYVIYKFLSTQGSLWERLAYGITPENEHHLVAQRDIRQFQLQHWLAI
Method: The norepinephrine (NE) transporter removes NE from the synaptic cleft. The NE transporter terminates the effects of […], enabling its reuse by the presynaptic neuron. The in vitro binding of the compounds of the invention to the NE transporter and the percent inhibition of control-specific binding ([^3H]-nisoxetine in human recombinant CHO cells) is determined following the method described in Pacholczyk et al., (Nature 1991, 350(6316): 350-4.

serotonin transporter = biological target: T2, serotonin transporter (Homo sapiens, UniProt P31645); experiment: Serotonin transporter binding radioligand inhibition ([3H]-imipramine); conditions: concentration 10 μM; read-out: serotonin binding inhibition
T2 construct: expressed in transfected cells; host or cells: CHO cells
T2 sequence (P31645 whole entry): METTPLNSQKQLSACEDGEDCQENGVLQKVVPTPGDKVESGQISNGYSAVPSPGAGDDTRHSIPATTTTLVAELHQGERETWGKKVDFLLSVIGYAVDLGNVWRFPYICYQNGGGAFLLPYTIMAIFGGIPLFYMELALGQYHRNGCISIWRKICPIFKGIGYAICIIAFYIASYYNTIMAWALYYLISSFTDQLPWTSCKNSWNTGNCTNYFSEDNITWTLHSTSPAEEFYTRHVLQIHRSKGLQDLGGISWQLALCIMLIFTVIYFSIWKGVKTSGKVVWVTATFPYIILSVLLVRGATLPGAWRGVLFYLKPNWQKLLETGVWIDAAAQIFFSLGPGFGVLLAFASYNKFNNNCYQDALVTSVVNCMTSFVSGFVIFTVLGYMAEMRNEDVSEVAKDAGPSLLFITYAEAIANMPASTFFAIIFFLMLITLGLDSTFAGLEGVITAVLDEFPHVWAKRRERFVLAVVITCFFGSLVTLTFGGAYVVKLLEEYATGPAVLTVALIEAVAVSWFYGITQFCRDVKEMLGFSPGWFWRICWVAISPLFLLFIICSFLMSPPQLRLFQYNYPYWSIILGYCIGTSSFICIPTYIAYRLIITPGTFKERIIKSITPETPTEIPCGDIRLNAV
Excerpt: The serotonin transporter removes serotonin from the synaptic deft. The serotonin transporter terminates the effects of […], enabling its reuse by the presynaptic neuron.

uptake of serotonin = uptake of serotonin (Homo sapiens, UniProt P31645); experiment: Uptake inhibition of serotonin, cellular assay; assay type: cell-based; conditions: read-out: Serotonin reuptake inhibition (IC50 μM)
Chain of uptake of serotonin (P31645 whole entry): as above
Method: (§1) The effect of the compounds of the present invention as inhibitors of the uptake of norepinephrine and serotonin in cellular assays at concentrations that range from […] to 1 nM is determined following the methods described in Galli, A. et al. J Exp Biol 1995, 198(Pt. 10): 2197-212 and Gu, H. et al. J Biol Chem. 1994, 269(10):7124-30.

CHO cells = experiment: In vitro MTT toxicity screen; assay type: cell-based, Chinese hamster; conditions: 10 μM, compared to positive control group (10% DMSO)
Method: The toxicity of the compounds of the present invention at a concentration of 10 μM has been explored using the tetrazolium salt (MTT) method in CHO cells. The MTT method involving conversion of MTT to colored formazan by cells serves as an indirect measurement of cell growth/cell kill, as reported by several groups (Paimela, T. et al. Mol Vis 2012; 18: 1189-96; Hansen, M. B. et al. J Immunol Methods 1989, 119(2): 203-10).
In the MTT assay, cytotoxicity is correlated with the color of MTT and is measured with a spectrophotometer at the wavelength of 570 nm. Briefly, fresh MTT solution (10 mg/mL in 1×PBS) was added (1:20 volume of medium) and the cells were incubated for 1.5 hours. The cells were lysed and purple formazan was dissolved into the solution by overnight incubation with MTT lysis buffer (20% SDS, 50% N,N-dimethylformamide, 2% acetic acid, 25 mM HCl; the volume of medium+volume of MTT salt solution).

uptake of norepinephrine = uptake of norepinephrine (Homo sapiens, UniProt P23975); experiment: Uptake inhibition of norepinephrine, cellular assay; assay type: cell-based; conditions: read-out: Norepinephrine reuptake inhibition (IC50 μM)
Chain of uptake of norepinephrine (P23975 whole entry): as the sequence (P23975 whole entry) above
Method: as §1

[3] = test system: phosphorylation of CREB in SN56 and T48 cell lines; experiment: CREB phosphorylation in SN56 and T48 cell lines (western blot); assay type: cell-based, mouse; conditions: both cell lines (SN56 and T48)
Method: The purpose of the study was to assess the acute biochemical neuronal changes in neurotrophin and synaptic plasticity signaling in vitro after the incubation in SN56 (fusion of mouse septal area cells and neuroblastoma cells with no TRKB expression) and T48 (SN56 stable transfected to express TrkB) cell lines the Examples 3 and 4. These changes were studied with a western blot assessment of Erk, Akt, PLC, Trkb, BDNF and CREB (cAMP response element-binding protein) phosphorilation assays.
Proteins were denatured in 62.5 mM Tris-HCl (pH 6.8), 2% (w/v) SDS, 10% glycerol, 140 mM β-mercaptoethanol and 0.1% (w/v) bromophenol blue, heated at 100° C. for 5 min (except for VGLUT1 blotting: 10 minutes 60° C.) and resolved in denaturing polyacrylamide gels (8% acrylamide); proteins were transferred to a nitrocellulose membrane), and washed twice in Tris-buffered saline containing 0.1% Tween-20 (TBS-T). […]
After primary antibody incubation, membranes were washed with TBS-T and incubated for 1 h at room temperature with the appropriated horseradish peroxidase-conjugated secondary antibody (Promega, Madison, Wis., USA), and the reaction was finally visualized with the Western Blotting Luminol Reagent (Santa Cruz Biotechnology, Santa Cruz, Calif., USA). Western blot replicates were scanned and quantified using a computer-assisted densitometric analysis. […]

mice [4] = experiment: Mouse formalin assay (analgesic activity); assay type: in vivo
Method: The analgesic activity of the compounds of the present invention is determined making use of the mouse formalin test described in Hunskaar, S. J Neurosci Methods 1985, 14(1): 69-76. The hind paw licking time was measured at 5-minute intervals for 30 minutes following subplantar injection of formalin (0.02 mL, 2%). Statistical analysis using one-way ANOVA followed by Dunnett's test was applied for comparison between the test substance-treated and vehicle control groups. P<0.05 was considered significant.

mice [5] = experiment: Novel object recognition test (acute); assay type: in vivo; conditions: 3 mg/kg i.p., same experimental conditions
Excerpt: The novel object recognition task is used to evaluate cognition, particularly memory recognition, in rodent models of CNS disorders. This test is based on the spontaneous tendency of rodents to spend more time exploring a novel object than a familiar one. The choice to explore the novel object reflects the use of learning and memory recognition. The novel object recognition test provides a measure of activity in a novel environment allowing tests for emotional reactivity and also for novel object recognition, a cognitive domain that depends on hippocampal functional integrity. Animals were habituated to the presence of two identical objects (LEGO® pieces) during a single session of 5 minutes (training) and sniffing (exploration of an object was defined as pointing the nose to the object at a distance of <1 cm and/or touching it with the nose). Mice were injected with saline or with the compound to be tested and returned to their home cages. At 24 hours the animals were introduced in the same open field again with the same two items (familiarization), and again exploration in each of them for 5 minutes was registered. One hour later, the mice were retested in the open field for 3 minutes, but this time with one of the “familiar” objects replaced by a new one (test). To analyze cognitive performance, a discrimination index was calculated as the difference in time exploring the novel and familiar object, expressed as the ratio of the total time spent exploring both objects, which made it possible to adjust for any differences in total exploration time. This test is useful for assessing impaired cognitive ability in transgenic strains of mice and evaluating novel chemical entities for their effect on cognition (Zhang, R. J Alzheimers Dis 2012, 31(4): 801-12). […] Neuroplasticity 2007, 26496).

[6] = biological target: T3, Human dopamine transporters (Homo sapiens, UniProt Q01959); experiment: Binding to the dopamine transporter ([125I]-RTI-55); conditions: reference compound; read-out: IC50, [125I]-RTI-55 binding to DAT
T3 construct: expressed in transfected cells; host or cells: CHO-K1 cells (membranes)
T3 sequence (Q01959 whole entry): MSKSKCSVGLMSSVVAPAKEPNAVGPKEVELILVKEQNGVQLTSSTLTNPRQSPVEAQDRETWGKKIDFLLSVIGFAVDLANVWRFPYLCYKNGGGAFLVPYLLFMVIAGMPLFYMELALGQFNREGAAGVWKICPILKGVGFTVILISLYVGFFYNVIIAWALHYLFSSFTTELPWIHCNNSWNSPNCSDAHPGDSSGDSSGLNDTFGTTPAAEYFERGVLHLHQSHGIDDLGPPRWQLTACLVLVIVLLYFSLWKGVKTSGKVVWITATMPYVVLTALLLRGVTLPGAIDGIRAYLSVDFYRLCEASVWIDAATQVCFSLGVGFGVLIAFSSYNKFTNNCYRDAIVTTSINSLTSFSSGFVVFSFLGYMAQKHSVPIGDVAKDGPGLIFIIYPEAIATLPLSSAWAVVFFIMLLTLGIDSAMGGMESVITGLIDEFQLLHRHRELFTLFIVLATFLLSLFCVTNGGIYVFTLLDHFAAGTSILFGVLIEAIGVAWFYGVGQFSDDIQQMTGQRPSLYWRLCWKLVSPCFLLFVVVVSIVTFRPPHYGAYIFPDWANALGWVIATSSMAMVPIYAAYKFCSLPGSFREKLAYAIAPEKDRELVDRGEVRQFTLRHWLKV
Method: Human dopamine transporters expressed in CHO—K1 cells are used in modified Tris-HCl buffer at pH 7.4. […] Non-specific binding is estimated in the presence of […] nomifensine.

[7] = 30 mg/kg oral, 60 minutes after dosing

SMILES	antidepressant effect (duration of immobility) (mice [1]; [7])	inhibition at 10 µM [2] [%]	inhibition at 10 µM (serotonin transporter) [%]	antidepressant effect (duration of immobility) (mice [1]; 90 mg/kg p.o.)	IC50 (uptake of serotonin) [µM]	cell viability (MTT) (CHO cells) [%]	IC50 (uptake of norepinephrine) [µM]	phosphorylation of CREB [3]	analgesic activity following formalin challenge (hind paw licking time) (mice [4]; 90 mg/kg oral)	analgesic activity following formalin challenge (hind paw licking time) (mice [4]; 30 mg/kg oral)	melting point [°C]	cognitive improvement (mice [5])	IC50 [6] [µM]
CNCCCN1c2ccccc2CCc2ccccc21 [Desipramine, reference compound]	significant effect	–	–	–	–	–	–	–	–	–	–	–	–
CNCC[C@@H](Oc1ccc(CCO)cc1)c1ccccc1.Cl [Example 3, (R)-2-[4-[3-(Methylamino)-1-phenylpropoxy]phenyl]ethanol hydrochloride]	–	65 to 90	68 to 82	active	2.5 to 4.8	100	1.6 to 2.9	increase significantly	active	–	–	–	–
CNCC[C@H](Oc1ccc(CCO)cc1)c1ccccc1.Cl [Example 4, (S)-2-[4-[3-(Methylamino)-1-phenylpropoxy]phenyl]ethanol hydrochloride]	significant activity	65 to 90	68 to 82	active	2.5 to 4.8	100	1.6 to 2.9	increase significantly	active	active	–	–	–
Cl.NCCC(Oc1ccc(CCO)cc1)c1ccccc1 (stereo not drawn) [Example 12, 2-[4-(3-Amino-1-phenylpropoxy)phenyl]ethanol hydrochloride]	–	79	78	–	1	–	2.7	–	–	–	68 to 70	–	–
Cl.OCCc1ccc(OCC2CNCCO2)cc1 (stereo not drawn) [Example 18, 2-[4-(Morpholin-2-ylmethoxy)phenyl]ethanol hydrochloride]	–	65 to 90	68 to 82	–	2.5 to 4.8	100	1.6 to 2.9	–	demonstrated analgesic activity	–	163 to 169	–	–
C#CCN[C@@H]1CCc2ccccc21 [rasagiline, reference compound]	–	–	–	–	–	–	–	–	–	–	–	absence of cognitive improvement	–
COC(=O)[C@H]1[C@H]2C[C@@H]3c4[nH]c5cc(OC)ccc5c4CCN3C[C@H]2C[C@@H](OC(=O)c2cc(OC)c(OC)c(OC)c2)[C@@H]1OC [reserpine, reference compound]	–	–	–	–	–	–	–	–	–	–	–	–	1.3
